Measurements from ChEMBL document CHEMBL2203152, “Systematic in vivo screening of a series of 1-propyl-4-arylpiperidines against dopaminergic and serotonergic properties in rat brain: a scaffold-jumping approach” (J Med Chem, 2012).
Active and inactive are the calls of the source. No cut-off for these calls is given here.

Tests used:
[1] = system: Rattus norvegicus; experiment: Reduction in spontaneous locomotor activity in Sprague-Dawley rat at 100 umol/kg, sc measured after 15 to 60 mins relative to saline-treated control; type: functional; design: scale not given: the % may be the effect or the level left
[2] = system: Rattus norvegicus; experiment: Decrease in 5-HIAA level in Sprague-Dawley rat striatum at 100 umol/kg, sc by HPLC analysis relative to saline-treated control; type: functional; design: scale not given: the % may be the effect or the level left
[3] = system: Rattus norvegicus; experiment: Increase in DOPAC level in Sprague-Dawley rat striatum at 100 umol/kg, sc by HPLC analysis relative to saline-treated control; type: functional
[4] = molecular target: T1, Amine oxidase [flavin-containing] A (Rattus norvegicus, UniProt P21396); experiment: Displacement of [3H]Ro 41-1049 from MAO-A in rat cerebral cortex by competition binding assay; type: tissue-based; settings: for Ki: read-out: Ki(app)
T1 sequence (P21396 whole entry): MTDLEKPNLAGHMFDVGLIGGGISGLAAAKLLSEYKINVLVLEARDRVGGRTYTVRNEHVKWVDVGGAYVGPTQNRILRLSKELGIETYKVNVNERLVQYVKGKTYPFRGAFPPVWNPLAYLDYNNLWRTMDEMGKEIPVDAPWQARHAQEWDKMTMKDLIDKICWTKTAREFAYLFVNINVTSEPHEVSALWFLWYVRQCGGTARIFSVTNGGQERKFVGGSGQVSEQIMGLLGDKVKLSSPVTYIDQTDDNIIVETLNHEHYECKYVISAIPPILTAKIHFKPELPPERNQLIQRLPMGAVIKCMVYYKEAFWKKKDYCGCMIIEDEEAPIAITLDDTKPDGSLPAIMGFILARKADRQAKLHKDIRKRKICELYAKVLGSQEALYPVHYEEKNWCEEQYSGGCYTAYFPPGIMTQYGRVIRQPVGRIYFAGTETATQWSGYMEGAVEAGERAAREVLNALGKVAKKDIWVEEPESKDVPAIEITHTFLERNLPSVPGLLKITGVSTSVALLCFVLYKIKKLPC

[5] = molecular target: Sodium-dependent serotonin transporter (Homo sapiens, UniProt P31645); experiment: Displacement of [3H]imipramine from human SERT expressed in CHO cells by competition binding assay; type: cell-based; settings: read-out: Ki(app)
Sodium-dependent serotonin transporter, sequence (P31645 whole entry): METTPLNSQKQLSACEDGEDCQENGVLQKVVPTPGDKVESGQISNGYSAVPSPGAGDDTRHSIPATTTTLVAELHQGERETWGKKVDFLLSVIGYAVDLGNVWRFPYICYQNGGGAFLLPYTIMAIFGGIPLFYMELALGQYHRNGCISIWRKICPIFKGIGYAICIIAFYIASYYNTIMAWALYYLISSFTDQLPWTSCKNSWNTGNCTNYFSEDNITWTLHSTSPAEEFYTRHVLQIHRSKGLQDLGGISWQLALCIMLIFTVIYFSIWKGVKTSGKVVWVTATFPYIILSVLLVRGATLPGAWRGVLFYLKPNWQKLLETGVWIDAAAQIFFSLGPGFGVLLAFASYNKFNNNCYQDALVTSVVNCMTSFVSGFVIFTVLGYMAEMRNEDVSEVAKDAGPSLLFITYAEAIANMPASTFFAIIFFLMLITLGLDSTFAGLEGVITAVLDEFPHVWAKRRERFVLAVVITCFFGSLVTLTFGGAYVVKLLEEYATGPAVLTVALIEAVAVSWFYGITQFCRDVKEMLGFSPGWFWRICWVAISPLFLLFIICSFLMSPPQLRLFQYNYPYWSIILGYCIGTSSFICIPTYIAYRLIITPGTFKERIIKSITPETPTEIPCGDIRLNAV

[6] = molecular target: T2, D(2) dopamine receptor (Homo sapiens, UniProt P14416); experiment: Displacement of [3H]7-OH-DPAT from human high affinity Dopamine D2S receptor by competition binding assay
T2 sequence (P14416 whole entry): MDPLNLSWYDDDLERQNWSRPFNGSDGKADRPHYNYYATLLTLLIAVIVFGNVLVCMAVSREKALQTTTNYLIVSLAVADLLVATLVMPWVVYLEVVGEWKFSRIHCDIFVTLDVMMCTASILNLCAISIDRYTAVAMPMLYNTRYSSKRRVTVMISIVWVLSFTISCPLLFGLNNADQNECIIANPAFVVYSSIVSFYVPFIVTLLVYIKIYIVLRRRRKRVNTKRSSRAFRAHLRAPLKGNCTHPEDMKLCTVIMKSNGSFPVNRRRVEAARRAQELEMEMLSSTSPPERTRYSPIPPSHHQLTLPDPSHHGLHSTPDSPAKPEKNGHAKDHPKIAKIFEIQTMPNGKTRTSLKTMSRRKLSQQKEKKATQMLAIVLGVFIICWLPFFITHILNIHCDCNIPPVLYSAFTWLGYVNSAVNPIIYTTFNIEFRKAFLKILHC

[7] = molecular target: T2, D(2) dopamine receptor; experiment: Displacement of [3H]methylspiperone from human low affinity Dopamine D2S receptor by competition binding assay
[8] = molecular target: T3, 5-hydroxytryptamine receptor 1A (Homo sapiens) (UniProt P08908); experiment: Displacement of [3H]8- OH-DPAT from human 5-HT1A at 1 uM by CEREP assay
T3 sequence (whole entry): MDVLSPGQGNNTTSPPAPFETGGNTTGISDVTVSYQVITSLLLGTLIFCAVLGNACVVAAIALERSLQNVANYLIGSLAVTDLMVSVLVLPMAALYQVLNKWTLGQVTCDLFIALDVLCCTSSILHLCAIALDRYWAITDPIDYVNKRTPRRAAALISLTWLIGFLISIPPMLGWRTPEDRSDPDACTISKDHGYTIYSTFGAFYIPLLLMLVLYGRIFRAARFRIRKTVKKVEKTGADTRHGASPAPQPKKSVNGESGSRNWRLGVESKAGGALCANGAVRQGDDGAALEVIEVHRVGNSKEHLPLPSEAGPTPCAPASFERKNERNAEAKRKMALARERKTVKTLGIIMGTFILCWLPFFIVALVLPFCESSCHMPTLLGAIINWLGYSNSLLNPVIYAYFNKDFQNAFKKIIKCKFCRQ

[9] = molecular target: Sodium-dependent dopamine transporter (Homo sapiens) (UniProt Q01959); experiment: Displacement of [3H]BTCP from human DAT at 1 uM by CEREP assay
Sodium-dependent dopamine transporter (Homo sapiens), sequence (Q01959 whole entry): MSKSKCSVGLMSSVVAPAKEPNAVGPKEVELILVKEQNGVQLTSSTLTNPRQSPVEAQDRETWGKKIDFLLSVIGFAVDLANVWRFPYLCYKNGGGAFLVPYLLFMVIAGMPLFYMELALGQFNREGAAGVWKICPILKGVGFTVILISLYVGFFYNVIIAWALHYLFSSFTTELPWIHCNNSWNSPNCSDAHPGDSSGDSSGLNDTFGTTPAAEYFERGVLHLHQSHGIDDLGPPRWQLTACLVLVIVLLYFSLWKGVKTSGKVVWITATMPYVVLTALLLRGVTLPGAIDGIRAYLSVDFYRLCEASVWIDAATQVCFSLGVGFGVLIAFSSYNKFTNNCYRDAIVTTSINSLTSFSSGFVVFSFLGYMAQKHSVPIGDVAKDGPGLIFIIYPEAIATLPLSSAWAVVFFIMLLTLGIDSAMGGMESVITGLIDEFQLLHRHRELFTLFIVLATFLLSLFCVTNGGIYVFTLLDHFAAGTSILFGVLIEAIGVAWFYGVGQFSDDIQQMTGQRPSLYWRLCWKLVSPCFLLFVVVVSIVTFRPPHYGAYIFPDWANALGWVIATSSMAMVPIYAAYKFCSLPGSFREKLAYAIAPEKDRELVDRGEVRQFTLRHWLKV

[10] = molecular target: T4, D(4) dopamine receptor (Homo sapiens) (UniProt P21917); experiment: Displacement of [3H]methylspiperone from human dopamine D4 receptor at 1 uM by CEREP assay
T4 sequence (whole entry): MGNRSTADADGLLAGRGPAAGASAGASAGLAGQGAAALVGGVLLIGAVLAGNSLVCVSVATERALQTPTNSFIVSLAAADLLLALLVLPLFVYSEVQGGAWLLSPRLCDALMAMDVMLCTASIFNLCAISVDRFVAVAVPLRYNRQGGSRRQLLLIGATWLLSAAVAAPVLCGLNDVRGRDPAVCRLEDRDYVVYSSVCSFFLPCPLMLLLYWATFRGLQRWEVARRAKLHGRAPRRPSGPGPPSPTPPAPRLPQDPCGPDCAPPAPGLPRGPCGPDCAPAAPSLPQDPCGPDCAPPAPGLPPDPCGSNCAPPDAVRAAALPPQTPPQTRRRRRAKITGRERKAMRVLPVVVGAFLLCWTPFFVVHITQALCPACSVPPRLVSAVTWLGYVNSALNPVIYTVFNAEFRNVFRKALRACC

[11] = molecular target: D(3) dopamine receptor (Homo sapiens, UniProt P35462); experiment: Displacement of [3H]7-OH-DPAT from human dopamine D3 receptor at 1 uM by CEREP assay
D(3) dopamine receptor, sequence (P35462 whole entry): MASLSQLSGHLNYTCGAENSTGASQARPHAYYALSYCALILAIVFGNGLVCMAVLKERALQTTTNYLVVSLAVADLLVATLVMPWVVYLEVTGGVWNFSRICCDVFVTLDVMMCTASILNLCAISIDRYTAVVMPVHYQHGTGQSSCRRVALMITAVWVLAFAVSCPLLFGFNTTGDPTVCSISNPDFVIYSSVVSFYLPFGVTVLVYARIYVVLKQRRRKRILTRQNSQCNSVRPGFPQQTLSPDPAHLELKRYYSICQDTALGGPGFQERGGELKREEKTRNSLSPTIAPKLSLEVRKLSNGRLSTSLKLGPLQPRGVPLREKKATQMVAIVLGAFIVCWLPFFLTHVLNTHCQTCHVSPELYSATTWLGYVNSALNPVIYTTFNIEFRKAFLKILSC

[12] = system: Rattus norvegicus; experiment: Increase in DOPAC level in sc dosed Sprague-Dawley rat striatum by HPLC analysis; type: functional
[13] = system: Rattus norvegicus; experiment: Reduction in spontaneous locomotor activity in Sprague-Dawley rat at 33 umol/kg, sc measured after 15 to 60 mins relative to saline-treated control; type: functional; design: scale not given: the % may be the effect or the level left
[14] = system: Rattus norvegicus; experiment: Decrease in 5-HIAA level in Sprague-Dawley rat striatum at 33 umol/kg, sc by HPLC analysis relative to saline-treated control; type: functional; design: scale not given: the % may be the effect or the level left
[15] = system: Rattus norvegicus; experiment: Increase in DOPAC level in Sprague-Dawley rat striatum at 33 umol/kg, sc by HPLC analysis relative to saline-treated control; type: functional
[16] = species on record: Homo sapiens; experiment: Selectivity ratio of Ki(app) for human low affinity Dopamine D2S receptor to Ki(app) for human high affinity Dopamine D2S receptor
[17] = molecular target: 5-hydroxytryptamine receptor 2A (Homo sapiens, UniProt P28223); experiment: Displacement of [3H]ketanserin from human 5-HT2A at 1 uM by CEREP assay
5-hydroxytryptamine receptor 2A, sequence (P28223 whole entry): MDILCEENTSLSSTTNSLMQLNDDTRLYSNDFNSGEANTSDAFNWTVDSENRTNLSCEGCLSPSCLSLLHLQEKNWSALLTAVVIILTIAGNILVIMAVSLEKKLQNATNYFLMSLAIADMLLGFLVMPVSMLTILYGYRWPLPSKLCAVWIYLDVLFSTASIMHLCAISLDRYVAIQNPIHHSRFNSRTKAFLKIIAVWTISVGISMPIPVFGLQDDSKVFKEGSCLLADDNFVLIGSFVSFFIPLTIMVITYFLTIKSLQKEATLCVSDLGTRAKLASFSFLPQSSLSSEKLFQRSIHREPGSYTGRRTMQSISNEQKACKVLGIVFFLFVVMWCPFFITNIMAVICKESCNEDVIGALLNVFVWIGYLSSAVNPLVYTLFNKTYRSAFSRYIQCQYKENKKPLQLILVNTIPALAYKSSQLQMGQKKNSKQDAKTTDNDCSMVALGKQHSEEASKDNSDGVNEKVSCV

[18] = molecular target: T5, Alpha-2A adrenergic receptor (Homo sapiens) (UniProt P08913); experiment: Displacement of [3H]UK 14.304 from human adrenergic alpha2A receptor at 1 uM
T5 sequence (whole entry): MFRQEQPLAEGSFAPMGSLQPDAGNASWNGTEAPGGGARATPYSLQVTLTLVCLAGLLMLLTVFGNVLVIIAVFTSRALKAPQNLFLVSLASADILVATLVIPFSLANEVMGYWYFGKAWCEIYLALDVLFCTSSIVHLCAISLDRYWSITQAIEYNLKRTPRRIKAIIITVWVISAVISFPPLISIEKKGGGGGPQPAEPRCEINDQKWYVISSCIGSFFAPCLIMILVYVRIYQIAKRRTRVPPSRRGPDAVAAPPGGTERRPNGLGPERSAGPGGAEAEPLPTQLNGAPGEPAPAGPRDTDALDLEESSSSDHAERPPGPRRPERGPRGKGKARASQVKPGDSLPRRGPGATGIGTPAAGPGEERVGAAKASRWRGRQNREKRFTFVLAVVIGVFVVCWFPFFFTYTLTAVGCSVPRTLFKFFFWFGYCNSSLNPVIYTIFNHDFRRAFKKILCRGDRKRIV

[19] = Binding affinity to dopamine receptor
[20] = Binding affinity to 5-HT receptor

| SMILES | Activity [1] | Activity [2] | Activity [3] | Ki [4] | Ki [5] | Ki [6] | Ki [7] | ED50 [12] | Ratio Ki(app) [16] | other results |
| --- | --- | --- | --- | --- | --- | --- | --- | --- | --- | --- |
| CCCN1CCC(c2coc3ccccc23)CC1 | 75% | 84% | 35% | 92 nM | 827 nM | 803 nM | 2720 nM | – | – | inhibition [8]: 49%; inhibition [9]: 34%; inhibition [10]: 26%; inhibition [11]: 28% |
| CCCN1CCC(c2cccc(S(C)(=O)=O)c2)CC1 [PRIDOPIDINE] | – | – | – | – | – | – | – | 81 µmol/kg | – | – |
| CCCN1CCC(c2noc3cc(F)ccc23)CC1 | – | – | – | 2230 nM | 29800 nM | 34 nM | 194 nM | 4 µmol/kg | 5.7 | Activity [13]: 8.3%; Activity [14]: 111%; Activity [15]: 350%; inhibition [8]: 17%; inhibition [9]: 15%; inhibition [10]: 37%; inhibition [11]: 83% |
| CCCN1CCC(n2cnc3ccccc32)CC1 | 20% | 98% | 111% | – | 122 nM | 10800 nM | – | inactive | – | IC50 [4]: > 580000 nM; IC50 [7]: > 580000 nM |
| CCCN1CCC(c2cccc3ccccc23)CC1 | 62% | 76% | 218% | 5420 nM | 52 nM | 41 nM | 112 nM | 103 µmol/kg | 2.7 | – |
| CCCN1CCC(c2cc3ccccc3s2)CC1 | 37% | 76% | 28% | 18 nM | 130 nM | 574 nM | 2320 nM | – | 4 | inhibition [17]: 95%; inhibition [18]: 21%; inhibition [8]: 23%; inhibition [9]: 67% |
| CCCN1CCC(N2C(=O)C(=O)c3ccccc32)CC1 | 118% | 95% | 101% | – | 23800 nM | 12800 nM | 12200 nM | inactive | 0.9 | IC50 [4]: > 580000 nM |
| CCCN1CCC(c2csc3ccccc23)CC1 | 48% | 79% | 290% | 14000 nM | 6.5 nM | 26 nM | 121 nM | 54 µmol/kg | 4.6 | – |
| CCCN1CCC(c2cn(C)c3cc(F)ccc23)CC1 | 27% | 95% | 264% | 4050 nM | 45 nM | 157 nM | 275 nM | 33 µmol/kg | 1.7 | – |
| CCCN1CCC[C@@H](c2cccc(S(C)(=O)=O)c2)C1 | 215% | 100% | 260% | – | – | – | – | 63 µmol/kg | – | – |
| CCCN1CCC(c2n[nH]c3ccccc23)CC1 | – | – | – | 7440 nM | 5640 nM | 187 nM | 1070 nM | 55 µmol/kg | 5.7 | Activity [13]: 7%; Activity [14]: 105%; Activity [15]: 227% |
| CCCN1CCC(n2ccc3ccccc32)CC1 | 92% | 87% | 227% | 74900 nM | 54 nM | 109 nM | 1140 nM | 126 µmol/kg | 10 | – |
| CCCN1CCC(c2ccc3ccccc3c2)CC1 | 22% | 70% | 32% | 63 nM | 127 nM | 1540 nM | 2870 nM | – | 1.9 | inhibition [17]: 91%; inhibition [18]: 20%; inhibition [8]: 41%; inhibition [9]: 47% |
| CCCN1CCC(c2cn(C)c3ccc(F)cc23)CC1 | – | – | – | 6860 nM | 58 nM | 19 nM | 32 nM | 3 µmol/kg | 1.7 | Activity [13]: 9%; Activity [14]: 87%; Activity [15]: 275% |
| CCCN1CCC(c2c[nH]c3cc(F)ccc23)CC1 | – | – | – | 15800 nM | 45 nM | 43 nM | 27 nM | 4.1 µmol/kg | 0.6 | Activity [13]: 2.8%; Activity [14]: 93%; Activity [15]: 299%; inhibition [17]: 100%; inhibition [18]: 91%; inhibition [8]: 14%; inhibition [9]: 1% |
| CCCN1CCC(n2c(=O)n(C)c3cc(Cl)ccc32)CC1 | 27% | 113% | 253% | – | 2240 nM | 5180 nM | 2000 nM | 47 µmol/kg | 0.4 | IC50 [4]: > 580000 nM |
| CCCN1CC=C(c2c[nH]c3ccc(Cl)cc23)CC1 | – | – | – | – | – | – | – | – | – | Activity [19]: 80 nM; Activity [20]: 260 nM |
